Reference: US11629141B2, “Proteasome inhibitors and uses thereof” (CORNELL UNIVERSITY, priority 2015, dated 2023)

Assays:
Format in all cases: biochemical
[1] = molecular target: T1, β2c (Homo sapiens, UniProt Q99436); test: Inhibition of β2c activity; conditions: no inhibition <33 μM
T1 construct: purchased Boston Biochem Inc
Protocol: (§1) The foregoing features of these AsnEDA encouraged a further round of SAR studies (Table 5) based on varying the carboxylic acid at the ethylenediamine, the N-cap at the Asn, and the side chain of the Asn, based on PKS21004. All compounds listed in the Table 5 were synthesized as described in Examples 6-77. All final compounds were confirmed by NMR and HRMS. IC50s of all compounds against β5i and β5c (Table 5), β1i, β2i, β1c and β2c were determined following a reported method (Lin et al., “N,C-Capped Dipeptides With Selectivity for Mycobacterial Proteasome Over Human Proteasomes: Role of S3 and S1Binding Pockets,” J Am Chem Soc. 135:9968-9971 (2013), which is hereby incorporated by reference in its entirety). […] The [1,1′-biphenyl]-3-carboxamide of PKS21004 was then modified with the following substituents: 4′-fluoro (PKS21026), 4′-cyano (PKS21028), 4-fluoro (PKS21196), 4,3′-difluoro (PKS21195) and 4,2′-difluoro (PKS21187).

[2] = molecular target: T2, β2i (Homo sapiens, UniProt P40306); test: Inhibition of β2i activity; conditions: no inhibition <33 μM
T2 construct: purchased Boston Biochem Inc
Protocol: as §1

[3] = molecular target: T3, β1c (Homo sapiens, UniProt P28072); test: Inhibition of β1c activity; conditions: no inhibition <33 μM
T3 construct: purchased Boston Biochem Inc
Protocol: as §1

[4] = molecular target: T4, β1i (Homo sapiens, UniProt P28065); test: Inhibition of β1i activity; conditions: no inhibition <33 μM
T4 construct: purchased Boston Biochem Inc
Protocol: as §1

[5] = molecular target: T5, hu i-20S β5i (Homo sapiens, UniProt P28062); test: Kinetic analysis, substrate titration of hu i-20S steady state velocities
T5 construct: purchased Boston Biochem Inc
Protocol: FIGS. 1A-1E are graphs showing inhibition modality of PKS21004 against human proteasomes. Washout of c-20S from the preincubated c-20S and […] to recover the β5c activity (FIG. 1A). Substrate titration of hu i-20S (FIG. 1B) and c-20S (FIG. 1D) steady state velocities in the presence of PKS21004 at the concentrations indicated next to each curve. Data as in (FIG. 1B) were plotted double reciprocal in (FIG. 1C), and (FIG. 1D) in (FIG. 1E).
A washout experiment was used to confirm the reversibility of this class of proteasome inhibitors, as expected from their non-covalent chemistry.

Structure (SMILES): CC(C)(C)NC(=O)C[C@H](NC(=O)CCc1ccccc1)C(=O)NCCNC(=O)c1cccc(-c2ccccc2)c1 [PKS21004]
- IC50 against β2c [1]: no inhibition
- IC50 against β2i [2]: no inhibition
- IC50 against β1c [3]: no inhibition
- IC50 against β1i [4]: no inhibition
- Ki [5]: 77 nM
- α for i-20S (β5i) ([5]; fit to equation for noncompetitive inhibitors): 0.28 and ≈ 0.28
- modality of inhibition of β5i ([5]; with respect to substrate): noncompetitive inhibitor
